Data: US12465614B2, “Budesonide 21-phosphate salts and pharmaceutical compositions containing the same” (GENETIC S.P.A., priority 2020, dated 2025)
“Also recorded” adds a separate entry of the source.

Key:
Type in all cases: in vivo
OVA-sensitized mice [1] = details: 1 mg/Kg i.p. before each OVA exposure; female Balb/c; vs OVA group; FIG. 10A
OVA-sensitized mice [2] = assay: Bronchial relaxation to salbutamol, isolated bronchi of OVA-sensitized mice (Experimental Groups I); details: 1 mg/Kg i.p.; rings precontracted with carbachol; vs OVA group; FIG. 10B
[3] = system: mice with OVA-induced allergic asthma; assay: Lung hyperreactivity/Penh function, whole body plethysmography, intra-nasal FB, F, B (Experimental Groups II); details: i.n. daily 2 weeks, all tested doses: FB 0.3, 1.0, 3.0 nmol/animal, vs untreated OVA group
[4] = system: mice with OVA-induced allergic asthma; assay: BAL fluid cell counts (Experimental Groups II)
Procedure: (§1) Male Balb/c SPF mice (25*2 g, 6-week-old) were purchased from the animal house facilities at the São Paulo School of Medicine (Federal University of São Paulo, Brazil). They were group-housed in a temperature-controlled room at 22° C. with a 12/12-hour light/dark cycle and allowed free access to food and water. The study is in agreement with the Ethical Principles for Animal Research established by the Brazilian College for Animal Experimentation (COBEA). According to the internal laboratory rules, euthanasia is performed if severe distress related to the test agents developed during the experiment. […] The compounds were dissolved in DMSO (Sigma Chemical Co., St. Louis, MO) at concentrations at which the determined dose per animal results from the intraperitoneal administration of 100 μl of solution (1:10 DMSO) and intra-nasal (i.n.) administration of 10 μl/animal (5 μl/nostril) of the solutions. Mice were sensitized with two subcutaneous injections of 0.4 ml of OVA/Al(OH)3, with an interval of 7 days (Sham animals received the Al(OH)3 suspension in PBS with no OVA). Seven days after the second sensitization (i.e., 3rd week), the animals were nebulized twice a week with the 1% OVA solution (Sham and untreated OVA groups were nebulized with PBS) during 20 minutes for the next 2 weeks. Sixty minutes before the challenges (OVA nebulization) and daily during the next 4 weeks, mice were intra-nasally treated (10 μl/animal as 5 μl/nostril) with the respective compounds/vehicle. After Penh evaluation, the mice were anesthetized with inhaled isofluorane (5% v/v in O2) and blood samples were collected from the descending abdominal aorta. The mice were then euthanized by exsanguination (blood samples were collected from each animal for leukocyte cell counting), and bronchoalveolar lavage (BAL) was performed by exposing and cannulating the trachea with a polyethylene tube (1 mm outer diameter) connected to a syringe. The lungs were washed by flushing 300 μL of heparin-containing PBS solution (20 Ul/mL). The retrieved BAL lavage aliquots were obtained, and the same procedure was repeated four additional times. The samples were submitted to centrifugation (1000 g for 10 min) and the cell pellet was resuspended in 200 μL of PBS solution. Total cell counts were determined using a Neubauer chamber, and differential counting was carried out in cytospin (Fanem Mod 2400; São Paulo, Brazil) preparations stained with May-Grünwald dye. Leukocytes were classified based on normal morphological criteria.

[5] = system: mice with OVA-induced allergic asthma; assay: Circulating leukocyte cell counts (Experimental Groups II); details: i.n.; FB all tested doses (0.3, 1.0, 3.0 nmol/animal); B and F 3 nmol/animal
Procedure: as §1

[6] = system: Bradykinin acetate (BK)-induced skin edema in mice; assay: Cutaneous edema: BK-induced plasma extravasation, Evans blue method (Experimental Groups IV)
Procedure: Male C57Bl/6 SPF mice (25±2 g, 6-week-old) were purchased from the animal house facilities at the São Paulo School of Medicine (Federal University of São Paulo, Brazil). They were group-housed in a temperature-controlled room at 22° C. with a 12/12-hour light/dark cycle, had free access to food and water and were allowed to acclimate to our local facility for one week before the start of the experimental procedures. The study agrees with the Ethical Principles for Animal Research established by the Brazilian College for Animal Experimentation (COBEA). According to the internal laboratory rules, euthanasia is performed if severe distress related to the test agents developed during the experiment. […] The vehicle for dissolution of the compounds was sterile saline solution (0.9% NaCl) containing 12.5% DMSO (Sigma Chemical Co., St. Louis, MO). The compound solutions were prepared at concentrations such that the administered dose per kg of body weight results from the intraperitoneal (i.p.) administration of 10 ml/kg of each of the solutions. Bradykinin acetate (BK; cat. B3259, Sigma Chemical Co., St. Louis, MO) and compound 48/80 (C48/80; cat. C2313, Sigma Chemical Co., St. […] Skin edema was assessed in mice according to the method previously described by Costa et al. (2006) and Yshii et al (2009). The mice were anesthetized with urethane (25% w/v, 10 ml/kg, i.p.), had their dorsal skin shaved, and thereafter i.p. treated with the vehicle/test compounds. Fifty-five minutes later, a volume of 100 μL of Evans blue dye solution (0.25% in sterile saline) was intravenously (i.v.) injected via the tail vein. Five minutes later, the BK and C48/80 were intradermally (i.d.) injected into the dorsal skin at a fixed volume of 50 μl using a randomized scheme. The same volume of Tyrode solution 50 μl was injected as a control. Thirty minutes later, a 1 ml blood sample was obtained via cardiac puncture and the mice were killed by urethane overdose followed by cervical dislocation. The blood samples were centrifuged at 6,000 g for 4 min to obtain the plasma. The dorsal skin was removed, and the injected sites were punched out using an 8 mm diameter cork borer. […] The dye was extracted from each piece of skin and plasma (100 μl) samples using formamide, and the absorbance of the resulting solutions was measured at 620 nm. The plasma extravasation due to each agent (expressed in μl/site) was calculated as the ratio between the absorbance of each respective skin piece, corrected by the blank value and plasma sample solutions, properly adjusted by the dilution factors. To homogenate data due to the variability of different group of animals (inter-group variations), edema data are expressed as the fold-change response relative to the mean Tyrode (control) response of each experiment.

[7] = 0.70 μmol/kg i.p. (0.30 mg/kg Bud, 0.36 mg/kg Bud 21-P)
[8] = 2.32 μmol/kg i.p. (1.0 mg/kg Bud, 1.2 mg/kg Bud 21-P), 60 min before i.d. BK, measured 30 min after

Structure (SMILES)	bronchial hyperreactivity (increased response of isolated bronchi to carbachol) (OVA-sensitized mice [1])	bronchial relaxation to salbutamol (OVA-sensitized mice [2])	area under the Penh-metacholine concentration curve (AUC) ([3]; B 3.0 nmol/animal)	Penh maximal response Emax to inhaled metacholine ([3]; F and B 3.0 nmol/animal)	OVA-induced increase of BAL macrophages ([4]; 3 nmol/animal i.n.)	total leukocytes in BAL fluid ([4]; 3 nmol/animal i.n., vs untreated OVA group)	eosinophils in BAL samples ([4]; i.n., all treatments: FB 0.3, 1.0, 3.0 nmol/animal, F and B 3.0 nmol/animal)	circulating macrophages [5]	BK-induced plasma extravasation [6, 7]	BK-induced plasma extravasation [6, 8]
CCCC1OC2CC3C4CCC5=CC(=O)C=CC5(C)C4C(O)CC3(C)C2(C(=O)COP(=O)(O)O)O1 (stereo not drawn) [B, Budesonide 21-phosphate]	did not significantly affect the increased response of carbachol	did not ameliorate the lack of bronchial response to salbutamol	showed no effect	showed no effect	abolished the OVA-induced increase of BAL macrophages	significantly reduced	significantly controlled	significantly reduced the number of macrophages; also recorded: mild decrease of circulating macrophages	significantly reduced the BK response	abolished BK-induced response
CCCC1OC2CC3C4CCC5=CC(=O)C=CC5(C)C4C(O)CC3(C)C2(C(=O)CO)O1 (stereo not drawn) [Bud, 11β,21-dihydroxy-16α,17α-(butylidenebis(oxy))pregna-1,4-diene-3.20-dione]									ineffective	abolished BK-induced response
